In patent US20140024527A1, “HERBICIDAL PYRAZINONES” (E I DU DE NEMOURS AND COMPANY, priority 2011, published 2014):

Legend:
Format in all cases: in vivo
[1] = test system: barnyardgrass (Echinochloa crus-galli); experiment: Test A postemergence; settings: 0 to 100 scale, 0 no effect, 100 complete control, approx. 10 days
Text: (§1) Seeds of barnyardgrass (Echinochloa crus-galli), large crabgrass (Digitaria sanguinalis), giant foxtail (Setaria faberii), morningglory (Ipomoea spp.), pigweed (Amaranthus retroflexus), velvetleaf (Abutilon theophrasti), wheat (Triticum aestivum) and corn (Zea mays) were planted into a blend of loam soil and sand and treated preemergence with a directed soil spray using test chemicals formulated in a non-phytotoxic solvent mixture which included a surfactant. At the same time these species were also treated with postemergence applications of test compounds formulated in the same manner. Plants ranged in height from 2 to 10 cm and were in the one- to two-leaf stage for the postemergence treatments. Treated plants and untreated controls were maintained in a greenhouse for approximately 10 days, after which time all treated plants were compared to untreated controls and visually evaluated for injury. Plant response ratings, summarized in Table A, are based on a 0 to 100 scale where 0 is no effect and 100 is complete control.

[2] = test system: corn (Zea mays); experiment: Test A postemergence; settings: 0 to 100 scale, 0 no effect, 100 complete control, approx. 10 days
Text: as §1

[3] = test system: giant foxtail (Setaria faberii); experiment: Test A postemergence; settings: 0 to 100 scale, 0 no effect, 100 complete control, approx. 10 days
Text: as §1

[4] = test system: large crabgrass (Digitaria sanguinalis); experiment: Test A postemergence; settings: 0 to 100 scale, 0 no effect, 100 complete control, approx. 10 days
Text: as §1

[5] = test system: morningglory (Ipomoea spp.); experiment: Test A postemergence; settings: 0 to 100 scale, 0 no effect, 100 complete control, approx. 10 days
Text: as §1

[6] = test system: pigweed (Amaranthus retroflexus); experiment: Test A postemergence; settings: 0 to 100 scale, 0 no effect, 100 complete control, approx. 10 days
Text: as §1

[7] = test system: velvetleaf (Abutilon theophrasti); experiment: Test A postemergence; settings: 0 to 100 scale, 0 no effect, 100 complete control, approx. 10 days
Text: as §1

[8] = test system: wheat (Triticum aestivum); experiment: Test A postemergence; settings: 0 to 100 scale, 0 no effect, 100 complete control, approx. 10 days
Text: as §1

[9] = test system: barnyardgrass (Echinochloa crus-galli); experiment: Test A preemergence; settings: 0 to 100 scale, 0 no effect, 100 complete control, approx. 10 days
Text: as §1

[10] = test system: corn (Zea mays); experiment: Test A preemergence; settings: 0 to 100 scale, 0 no effect, 100 complete control, approx. 10 days
Text: as §1

[11] = test system: giant foxtail (Setaria faberii); experiment: Test A preemergence; settings: 0 to 100 scale, 0 no effect, 100 complete control, approx. 10 days
Text: as §1

[12] = test system: large crabgrass (Digitaria sanguinalis); experiment: Test A preemergence; settings: 0 to 100 scale, 0 no effect, 100 complete control, approx. 10 days
Text: as §1

[13] = test system: morningglory (Ipomoea spp.); experiment: Test A preemergence; settings: 0 to 100 scale, 0 no effect, 100 complete control, approx. 10 days
Text: as §1

[14] = test system: pigweed (Amaranthus retroflexus); experiment: Test A preemergence; settings: 0 to 100 scale, 0 no effect, 100 complete control, approx. 10 days
Text: as §1

[15] = test system: velvetleaf (Abutilon theophrasti); experiment: Test A preemergence; settings: 0 to 100 scale, 0 no effect, 100 complete control, approx. 10 days
Text: as §1

[16] = test system: wheat (Triticum aestivum); experiment: Test A preemergence; settings: 0 to 100 scale, 0 no effect, 100 complete control, approx. 10 days
Text: as §1

[17] = test system: barnyardgrass (Echinochloa crus-galli); experiment: Test B flooded paddy test; settings: Flood
Text: (§2) Plant species in the flooded paddy test consisted of rice (Oryza sativa), umbrella sedge (Cyperus difformis), ducksalad (Heteranthera limosa) and barnyardgrass (Echinochloa crus-galli) grown to the 2-leaf stage for testing. At time of treatment, test pots were flooded to 3 cm above the soil surface, treated by application of test compounds directly to the paddy water, and then maintained at that water depth for the duration of the test. Treated plants and controls were maintained in a greenhouse for 13 to 15 days, after which time all species were compared to controls and visually evaluated. Plant response ratings, summarized in Table B, are based on a scale of 0 to 100 where 0 is no effect and 100 is complete control. A dash (-) response means no test result.

[18] = test system: ducksalad (Heteranthera limosa); experiment: Test B flooded paddy test; settings: Flood, scale 0 to 100
Text: as §2

[19] = test system: rice (Oryza sativa); experiment: Test B flooded paddy test; settings: Flood, scale 0 to 100
Text: as §2

[20] = test system: umbrella sedge (Cyperus difformis); experiment: Test B flooded paddy test; settings: Flood, scale 0 to 100
Text: as §2

## COCCn1c(-c2cc(F)cc(F)c2)cnc(C(=O)C2=C(O)CCCC2=O)c1=O [Compound 5, 6-(3,5-difluorophenyl)-3-[(2-hydroxy-6-oxo-1-cyclohexen-1-yl)carbonyl]-1-(2-methoxyethyl)-2(1H)-pyrazinone]
[1]; 31 g ai/ha
  Plant response rating, Barnyardgrass: 50
[1]; 125 g ai/ha
  Plant response rating, Barnyardgrass: 90
[1]; 500 g ai/ha
  Plant response rating, Barnyardgrass: 90
[2]; 31 g ai/ha
  Plant response rating, Corn: 10
[2]; 125 g ai/ha
  Plant response rating, Corn: 50
[2]; 500 g ai/ha
  Plant response rating, Corn: 60
[3]; 31 g ai/ha
  Plant response rating, Foxtail, Giant: 30
[3]; 125 g ai/ha
  Plant response rating, Foxtail, Giant: 60
[3]; 500 g ai/ha
  Plant response rating, Foxtail, Giant: 80
[4]; 31 g ai/ha
  Plant response rating, Crabgrass, Large: 70
[4]; 125 g ai/ha
  Plant response rating, Crabgrass, Large: 90
[4]; 500 g ai/ha
  Plant response rating, Crabgrass, Large: 90
[5]; 31 g ai/ha
  Plant response rating, Morningglory: 80
[5]; 125 g ai/ha
  Plant response rating, Morningglory: 90
[5]; 500 g ai/ha
  Plant response rating, Morningglory: 90
[6]; 31 g ai/ha
  Plant response rating, Pigweed: 80
[6]; 125 g ai/ha
  Plant response rating, Pigweed: 100
[6]; 500 g ai/ha
  Plant response rating, Pigweed: 100
[7]; 31 g ai/ha
  Plant response rating, Velvetleaf: 70
[7]; 125 g ai/ha
  Plant response rating, Velvetleaf: 80
[7]; 500 g ai/ha
  Plant response rating, Velvetleaf: 100
[8]; 31 g ai/ha
  Plant response rating, Wheat: 0
[8]; 125 g ai/ha
  Plant response rating, Wheat: 30
[8]; 500 g ai/ha
  Plant response rating, Wheat: 30
[9]; 31 g ai/ha
  Plant response rating, Barnyardgrass: 0
[9]; 125 g ai/ha
  Plant response rating, Barnyardgrass: 50
[9]; 500 g ai/ha
  Plant response rating, Barnyardgrass: 80
[10]; 31 g ai/ha
  Plant response rating, Corn: 0
[10]; 125 g ai/ha
  Plant response rating, Corn: 0
[10]; 500 g ai/ha
  Plant response rating, Corn: 0
[11]; 31 g ai/ha
  Plant response rating, Foxtail, Giant: 20
[11]; 125 g ai/ha
  Plant response rating, Foxtail, Giant: 70
[11]; 500 g ai/ha
  Plant response rating, Foxtail, Giant: 80
[12]; 31 g ai/ha
  Plant response rating, Crabgrass, Large: 20
[12]; 125 g ai/ha
  Plant response rating, Crabgrass, Large: 100
[12]; 500 g ai/ha
  Plant response rating, Crabgrass, Large: 100
[13]; 31 g ai/ha
  Plant response rating, Morningglory: 0
[13]; 125 g ai/ha
  Plant response rating, Morningglory: 40
[13]; 500 g ai/ha
  Plant response rating, Morningglory: 80
[14]; 31 g ai/ha
  Plant response rating, Pigweed: 40
[14]; 125 g ai/ha
  Plant response rating, Pigweed: 90
[14]; 500 g ai/ha
  Plant response rating, Pigweed: 90
[15]; 31 g ai/ha
  Plant response rating, Velvetleaf: 30
[15]; 125 g ai/ha
  Plant response rating, Velvetleaf: 70
[15]; 500 g ai/ha
  Plant response rating, Velvetleaf: 80
[16]; 31 g ai/ha
  Plant response rating, Wheat: 0
[16]; 125 g ai/ha
  Plant response rating, Wheat: 0
[16]; 500 g ai/ha
  Plant response rating, Wheat: 0
[17]; 31 g ai/ha, scale 0 to 100
  Plant response rating, Barnyardgrass: 0
[17]; 62 g ai/ha, scale 0 to 100
  Plant response rating, Barnyardgrass: 0
[17]; 125 g ai/ha, scale 0 to 100
  Plant response rating, Barnyardgrass: 25
[17]; 250 g ai/ha, scale 0 to 100 (0 no effect, 100 complete control)
  Plant response rating, Barnyardgrass: 80
[18]; 31 g ai/ha
  Plant response rating, Ducksalad: 0
[18]; 62 g ai/ha
  Plant response rating, Ducksalad: 40
[18]; 125 g ai/ha
  Plant response rating, Ducksalad: 60
[18]; 250 g ai/ha
  Plant response rating, Ducksalad: 90
[19]; 31 g ai/ha
  Plant response rating, Rice: 0
[19]; 62 g ai/ha
  Plant response rating, Rice: 0
[19]; 125 g ai/ha
  Plant response rating, Rice: 10
[19]; 250 g ai/ha
  Plant response rating, Rice: 20
[20]; 31 g ai/ha
  Plant response rating, Sedge, Umbrella: 50
[20]; 62 g ai/ha
  Plant response rating, Sedge, Umbrella: 70
[20]; 125 g ai/ha
  Plant response rating, Sedge, Umbrella: 90
[20]; 250 g ai/ha
  Plant response rating, Sedge, Umbrella: 100
